Source: PubChem BioAssay (NCI)
“And” between values parts separate entries of the source, which are not always exact repeats. Equal values may be shown once.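 Grown in 96-well plates, cells were treated for 48 hours with each compound at five concentrations. Insufficient inhibition: endpoint recorded as highest concentration tested. Here, GI50 denotes the concentration required for 50% inhibition of growth. TGI marks complete inhibition of growth.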

Legend:
Test in all cases: DTP human tumour cell line panel, 48 h
UO-31 renal = system: UO-31 renal
OVCAR-3 ovarian = system: OVCAR-3 ovarian
SK-MEL-2 melanoma = system: SK-MEL-2 melanoma
KM12 colon = system: KM12 colon
OVCAR-8 ovarian = system: OVCAR-8 ovarian
EKVX NSCLC = system: EKVX NSCLC
SK-MEL-28 melanoma = system: SK-MEL-28 melanoma
SW-620 colon = system: SW-620 colon
SF-295 CNS = system: SF-295 CNS
TK-10 renal = system: TK-10 renal
HOP-62 NSCLC = system: HOP-62 NSCLC
NCI-H226 lung = system: NCI-H226 lung
HCC-2998 colon = system: HCC-2998 colon
MALME-3M melanoma = system: MALME-3M melanoma
SNB-75 CNS = system: SNB-75 CNS
OVCAR-5 ovarian = system: OVCAR-5 ovarian
SNB-19 CNS = system: SNB-19 CNS
RPMI-8226 leukemia = system: RPMI-8226 leukemia
MCF7 breast = system: MCF7 breast
K-562 leukemia = system: K-562 leukemia
HOP-92 NSCLC = system: HOP-92 NSCLC
SR leukemia = system: SR leukemia
786-0 renal = system: 786-0 renal
SK-OV-3 ovarian = system: SK-OV-3 ovarian
RXF 393 renal = system: RXF 393 renal
NCI/ADR-RES ovarian = system: NCI/ADR-RES ovarian
PC-3 prostate = system: PC-3 prostate
COLO 205 colon = system: COLO 205 colon
MDA-MB-231 breast = system: MDA-MB-231 breast
NCI-H522 lung = system: NCI-H522 lung
UACC-257 melanoma = system: UACC-257 melanoma
A549 NSCLC = system: A549 NSCLC
SF-539 CNS = system: SF-539 CNS
SF-268 CNS = system: SF-268 CNS
CAKI-1 renal = system: CAKI-1 renal
NCI-H460 lung = system: NCI-H460 lung
OVCAR-4 ovarian = system: OVCAR-4 ovarian
HS 578T breast = system: HS 578T breast
SN12C renal = system: SN12C renal
A498 renal = system: A498 renal
M14 melanoma = system: M14 melanoma
MDA-MB-435 = system: MDA-MB-435
BT-549 breast = system: BT-549 breast
DU-145 prostate = system: DU-145 prostate
SK-MEL-5 melanoma = system: SK-MEL-5 melanoma
HT29 colon = system: HT29 colon
HCT-116 colon = system: HCT-116 colon
LOX IMVI melanoma = system: LOX IMVI melanoma
CCRF-CEM leukemia = system: CCRF-CEM leukemia

## CC(=O)c1cnc2ccc(-c3cc(Cl)c(O)c(Cl)c3)nc2c1NC1CCC(CN(C)C)CC1 (stereo unspecified)
UO-31 renal
  TGI: 87.7 nM and 508 nM
OVCAR-3 ovarian
  TGI: 78.1 nM and 562 nM
SK-MEL-2 melanoma
  GI50: 28.8 nM and 237 nM
  TGI: 85.5 nM and 689 nM
KM12 colon
  TGI: 558 nM and 2000 nM
OVCAR-8 ovarian
  GI50: 28.9 nM and 255 nM
EKVX NSCLC
  GI50: 48.6 nM and 337 nM
SK-MEL-28 melanoma
  GI50: 19.4 nM and 186 nM
  TGI: 171 nM and 758 nM
SW-620 colon
  TGI: 2500 nM and > 10000 nM
SF-295 CNS
  GI50: 32.9 nM and 267 nM
TK-10 renal
  GI50: 30.7 nM and 160 nM
  TGI: 106 nM and 664 nM
HOP-62 NSCLC
  GI50: 27.5 nM and 195 nM
  TGI: 161 nM and 959 nM
NCI-H226 lung
  GI50: 39.5 nM and 81.9 nM
  TGI: 359 nM and 608 nM
HCC-2998 colon
  GI50: 44.9 nM and 191 nM
MALME-3M melanoma
  GI50: 48.4 nM and 49.9 nM
  TGI: 220 nM and 416 nM
SNB-75 CNS
  GI50: 5.15 nM and 33.3 nM
  TGI: 36.8 nM and 360 nM
OVCAR-5 ovarian
  GI50: 61.2 nM and 207 nM
  TGI: 2500 nM and > 10000 nM
SNB-19 CNS
  GI50: 31.1 nM and 230 nM
  TGI: 2.5 µM and 3.82 µM
RPMI-8226 leukemia
  GI50: 45.1 nM and 367 nM
MCF7 breast
  GI50: 17.9 nM and 169 nM
  TGI: 224 nM and 695 nM
K-562 leukemia
  TGI: 2500 nM and > 10000 nM
HOP-92 NSCLC
  GI50: 11.4 nM and 52.6 nM
  TGI: 99 nM and 458 nM
SR leukemia
  GI50: 5.49 nM
  TGI: 39.8 nM
786-0 renal
  GI50: 52.1 nM and 346 nM
  TGI: 289 nM and 1420 nM
SK-OV-3 ovarian
  TGI: 111 nM and 987 nM
RXF 393 renal
  GI50: 35.8 nM and 185 nM
  TGI: 93.9 nM and 419 nM
NCI/ADR-RES ovarian
  GI50: 53.1 nM and 310 nM
PC-3 prostate
  TGI: 2500 nM and 1190 nM
COLO 205 colon
  GI50: 42.5 nM and 318 nM
MDA-MB-231 breast
  GI50: 31.6 nM and 185 nM
  TGI: 495 nM and 772 nM
NCI-H522 lung
  GI50: 4.88 nM and 48 nM
UACC-257 melanoma
  GI50: 54.4 nM and 192 nM
  TGI: 234 nM and 783 nM
A549 NSCLC
  TGI: 570 nM and 1450 nM
SF-539 CNS
  TGI: 53.1 nM and 505 nM
SF-268 CNS
  TGI: 189 nM and 1220 nM
CAKI-1 renal
  GI50: 12.6 nM and 109 nM
  TGI: 672 nM and 535 nM
NCI-H460 lung
  TGI: 105 nM and 1050 nM
OVCAR-4 ovarian
  GI50: 40.4 nM and 245 nM
  TGI: 324 nM and 2580 nM
HS 578T breast
  TGI: 107 nM and 739 nM
SN12C renal
  TGI: 1340 nM and 2270 nM
A498 renal
  GI50: 13.7 nM and 111 nM
  TGI: 55.9 nM and 403 nM
M14 melanoma
  TGI: 273 nM and 760 nM
MDA-MB-435
  GI50: 12.8 nM and 116 nM
  TGI: 384 nM and 1160 nM
BT-549 breast
  TGI: 120 nM and 588 nM
DU-145 prostate
  TGI: 1080 nM and 1760 nM
SK-MEL-5 melanoma
  TGI: 55.4 nM and 306 nM
HT29 colon
  GI50: 84.4 nM and 436 nM
  TGI: 888 nM and 4410 nM
HCT-116 colon
  GI50: 9.06 nM and 61.3 nM
  TGI: 2500 nM and > 10000 nM
LOX IMVI melanoma
  TGI: 264 nM and 1120 nM
CCRF-CEM leukemia
  TGI: 240 nM and 1540 nM
